The compounds below were run against HEK293 cells with stable expression of the GRIN1 gene and tetracycline-inducible expression of the GRIN2B gene (NMDA receptor, NR2B) (Homo sapiens, UniProt Q13224) (assay: Fluo-8 Ca2+ flux assay: reversal of Ro 25-6981-mediated suppression of the Ca2+ response to co-agonist (glutamate/glycine)). Conditions: reversal of the Ro 25-6981 suppression of the Ca2+ response to co-agonist (glutamate/glycine).
Assay type: cell-based
Note: test concentration or dose not given here.

Sequence of HEK293 cells with stable expression of the GRIN1 gene and tetracycline-inducible expression of the GRIN2B gene (NMDA receptor, NR2B) (Q13224 27-1484, other chains not shown): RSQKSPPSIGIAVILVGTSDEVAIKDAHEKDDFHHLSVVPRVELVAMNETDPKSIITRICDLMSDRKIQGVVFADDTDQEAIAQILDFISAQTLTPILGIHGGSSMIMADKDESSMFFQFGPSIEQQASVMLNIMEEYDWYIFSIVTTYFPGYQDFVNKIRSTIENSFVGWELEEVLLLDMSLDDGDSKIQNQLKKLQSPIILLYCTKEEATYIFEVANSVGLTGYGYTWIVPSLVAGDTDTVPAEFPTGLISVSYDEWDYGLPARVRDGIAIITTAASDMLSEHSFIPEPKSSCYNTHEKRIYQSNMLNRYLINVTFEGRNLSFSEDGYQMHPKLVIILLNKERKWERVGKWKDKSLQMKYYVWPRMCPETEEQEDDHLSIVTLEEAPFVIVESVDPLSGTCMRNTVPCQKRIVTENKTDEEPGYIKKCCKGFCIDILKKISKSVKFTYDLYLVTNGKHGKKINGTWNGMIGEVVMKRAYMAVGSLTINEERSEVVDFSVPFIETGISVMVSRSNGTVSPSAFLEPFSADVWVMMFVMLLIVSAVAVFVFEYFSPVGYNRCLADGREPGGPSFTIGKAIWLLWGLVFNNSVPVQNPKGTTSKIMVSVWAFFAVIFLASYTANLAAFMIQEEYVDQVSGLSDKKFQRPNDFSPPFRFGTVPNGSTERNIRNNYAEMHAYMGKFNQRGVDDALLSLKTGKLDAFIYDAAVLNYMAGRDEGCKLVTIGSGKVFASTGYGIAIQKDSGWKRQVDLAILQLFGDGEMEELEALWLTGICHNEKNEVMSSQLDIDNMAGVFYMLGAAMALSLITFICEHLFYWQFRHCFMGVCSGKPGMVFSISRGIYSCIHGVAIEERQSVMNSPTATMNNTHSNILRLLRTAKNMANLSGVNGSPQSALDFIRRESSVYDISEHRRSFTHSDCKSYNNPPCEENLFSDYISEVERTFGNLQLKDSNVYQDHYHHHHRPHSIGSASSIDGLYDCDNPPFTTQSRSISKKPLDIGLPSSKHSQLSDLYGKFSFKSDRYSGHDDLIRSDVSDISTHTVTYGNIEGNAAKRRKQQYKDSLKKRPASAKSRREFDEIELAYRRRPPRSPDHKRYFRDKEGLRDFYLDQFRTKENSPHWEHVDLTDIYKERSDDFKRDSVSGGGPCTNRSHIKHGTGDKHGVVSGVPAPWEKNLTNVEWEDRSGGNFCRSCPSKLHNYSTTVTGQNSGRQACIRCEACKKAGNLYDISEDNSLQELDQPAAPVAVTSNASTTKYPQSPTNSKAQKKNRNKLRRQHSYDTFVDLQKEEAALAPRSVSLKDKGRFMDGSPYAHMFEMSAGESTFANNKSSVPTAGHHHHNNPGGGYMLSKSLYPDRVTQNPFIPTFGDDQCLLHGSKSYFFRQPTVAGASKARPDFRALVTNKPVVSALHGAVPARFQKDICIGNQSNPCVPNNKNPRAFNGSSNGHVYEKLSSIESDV

Row | SMILES | Response Recovered (%)
1 | O=C(Cn1nnc2scc(-c3ccc(Cl)c(C(F)(F)F)c3)c2c1=O)N1CCCC1C(F)(F)F (centres unmarked) [Example 334, 5-(4-chloro-3-(trifluoromethyl)phenyl)-3-(2-oxo-2-(2-(trifluoromethyl)pyrrolidin-1-yl)ethyl)thieno[2,3-d][1,2,3]triazin-4(3H)-one] | 2%
2 | O=C(Cn1ncc2scc(-c3ccc(Cl)c(C(F)(F)F)c3)c2c1=O)N1CCCC1 [Example 335, 3-(4-chloro-3-(trifluoromethyl)phenyl)-5-(2-oxo-2-(pyrrolidin-1-yl)ethyl)thieno[2,3-d]pyridazin-4(5H)-one] | 23%
3 | O=C(Cn1ncc2scc(-c3ccc(Cl)c(F)c3)c2c1=O)N1CCCC1 [Example 336, 3-(4-chloro-3-fluorophenyl)-5-(2-oxo-2-(pyrrolidin-1-yl)ethyl)thieno[2,3-d]pyridazin-4(5H)-one] | 3%
4 | O=C(Cn1ncc2scc(-c3ccc(F)c(Cl)c3)c2c1=O)N1CCCC1 [Example 337, 3-(3-chloro-4-fluorophenyl)-5-(2-oxo-2-(pyrrolidin-1-yl)ethyl)thieno[2,3-d]pyridazin-4(5H)-one] | 7%
5 | O=C(Cn1ncc2scc(-c3ccc(Cl)c(Cl)c3)c2c1=O)N1CCCC1 [Example 338, 3-(3,4-dichlorophenyl)-5-(2-oxo-2-(pyrrolidin-1-yl)ethyl)thieno[2,3-d]pyridazin-4(5H)-one] | 15%
6 | O=C(Cn1ncc2scc(-c3ccc(Cl)c(C(F)(F)F)c3)c2c1=O)N1CC(F)(F)C1 [Example 339, 3-(4-chloro-3-(trifluoromethyl)phenyl)-5-(2-(3,3-difluoroazetidin-1-yl)-2-oxoethyl)thieno[2,3-d]pyridazin-4(5H)-one] | 20%
7 | O=C(Cn1ncc2scc(-c3ccc(Cl)c(F)c3)c2c1=O)N1CC(F)(F)C1 [Example 340, 3-(4-chloro-3-fluorophenyl)-5-(2-(3,3-difluoroazetidin-1-yl)-2-oxoethyl)thieno[2,3-d]pyridazin-4(5H)-one] | 3%
8 | O=C(Cn1ncc2scc(-c3ccc(F)c(Cl)c3)c2c1=O)N1CC(F)(F)C1 [Example 341, 3-(3-chloro-4-fluorophenyl)-5-(2-(3,3-difluoroazetidin-1-yl)-2-oxoethyl)thieno[2,3-d]pyridazin-4(5H)-one] | 8%
9 | O=C(Cn1ncc2scc(-c3ccc(Cl)c(F)c3)c2c1=O)N1CCC(F)C1 (centres unmarked) [Example 342, 3-(4-chloro-3-fluorophenyl)-5-(2-(3-fluoropyrrolidin-1-yl)-2-oxoethyl)thieno[2,3-d]pyridazin-4(5H)-one] | 4%
10 | O=C(Cn1ncc2scc(-c3ccc(F)c(Cl)c3)c2c1=O)N1CCC(F)C1 (centres unmarked) [Example 343, 3-(3-chloro-4-fluorophenyl)-5-(2-(3-fluoropyrrolidin-1-yl)-2-oxoethyl)theino[2,3-d]pyridazin-4(5H)-one] | 15%
11 | O=C(Cn1ncc2scc(-c3ccc(Cl)c(C(F)(F)F)c3)c2c1=O)N1CCC(F)C1 (centres unmarked) [Example 344, 3-(4-chloro-3-(trifluoromethyl)phenyl)-5-(2-(3-fluoropyrrolidin-1-yl)-2-oxoethyl)thieno[2,3-d]pyridazin-4(5H)-one] | −1%
12 | O=C(Cn1cnc2csc(-c3ccc(Cl)cc3)c2c1=O)N1CCCC1 [Example 345, 5-(4-chlorophenyl)-3-(2-oxo-2-(pyrrolidin-1-yl)ethyl)thieno[3,4-d]pyrimidin-4(3H)-one] | 18%
13 | O=C(Cn1cnc2csc(-c3ccc(Cl)cc3)c2c1=O)NC1CC1 [Example 346, 2-(5-(4-chlorophenyl)-4-oxothieno[3,4-d]pyrimidin-3(4H)-yl)-N-cyclopropylacetamide] | 0%
14 | O=C(Cn1cnc2csc(-c3ccc(Cl)cc3)c2c1=O)NC1CCC1 [Example 347, 2-(5-(4-chlorophenyl)-4-oxothieno[3,4-d]pyrimidin-3-(4H)-yl)-N-cyclobutylacetamide] | 2%
15 | O=C(Cn1cnc2csc(-c3ccc(Cl)cc3)c2c1=O)N1CC(F)(F)C1 [Example 348, 5-(4-chlorophenyl)-3-(2-(3,3-difluoroazetidin-1-yl)-2-oxoethyl)thieno[3,4-d]pyrimidin-4(3H)-one] | 26%
16 | O=C(Cn1cnc2csc(-c3ccc(Cl)cc3)c2c1=O)N1CCC1 [Example 349, 3-(2-(azetidin-1-yl)-2-oxoethyl)-5-(4-chlorophenyl)thieno[3,4-d]pyrimidin-4(3H)-one] | 3%
17 | O=C(Cn1cnc2csc(-c3ccc(Cl)cc3)c2c1=O)N1CCCCC1 [Example 350, 5-(4-chlorophenyl)-3-(2-oxo-2-(piperidin-1-yl)ethyl)thieno[3,4-d]pyrimidin-4(3H)-one] | 0%
18 | COC1CN(C(=O)Cn2cnc3csc(-c4ccc(Cl)cc4)c3c2=O)C1 [Example 351, 5-(4-chlorophenyl)-3-(2-(3-methoxyazetidin-1-yl)-2-oxoethyl)thieno[3,4-d]pyrimidin-4(3H)-one] | 1%
19 | O=C(Cn1cnc2csc(-c3ccc(Cl)cc3)c2c1=O)N1CCC(O)C1 (centres unmarked) [Example 352, 5-(4-chlorophenyl)-3-(2-(3-hydroxypyrrolidin-1-yl)-2-oxoethyl)thieno[3,4-d]pyrimidin-4(3H)-one] | 7%
20 | O=C(Cn1cnc2csc(-c3ccc(Cl)cc3)c2c1=O)N1CCC(F)(F)CC1 [Example 353, 5-(4-chlorophenyl)-3-(2-(4,4-difluoropiperidin-1-yl)-2-oxoethyl)thieno[3,4-d]pyrimidin-4(3H)one] | 1%
21 | O=C(Cn1cnc2csc(-c3ccc(Cl)cc3)c2c1=O)N1CCOCC1 [Example 354, 5-(4-chlorophenyl)-3-(2-morpholino-2-oxoethyl)thieno[3,4-d]pyrimidin-4(3H)-one] | 1%
22 | O=C(Cn1cnc2csc(-c3ccc(Cl)cc3)c2c1=O)N1CCCC1C(F)(F)F (centres unmarked) [Example 355, 5-(4-chlorophenyl)-3-(2-oxo-2-(2-(trifluoromethyl)pyrrolidin-1-yl)ethyl)thieno[3,4-d]pyrimidin-4(3H)-one] | 10%
23 | O=C(Cn1cnc2csc(-c3ccc(C(F)(F)F)cc3)c2c1=O)N1CCCC1 [Example 356, 3-(2-oxo-2-(pyrrolidin-1-yl)ethyl)-5-(4-(trifluoromethyl)phenyl)thieno[3,4-d]pyrimidin-4(3H)-one] | 11%
24 | O=C(Cn1cnc2csc(-c3ccc(C(F)(F)F)cc3)c2c1=O)N1CCCC1C(F)(F)F (centres unmarked) [Example 357, 3-(2-oxo-2-(2-(trifluoromethyl)pyrrolidin-1-yl)ethyl)-5-(4-(trifluoromethyl)phenyl)thieno[3,4-d]pyrimidin-4(3H)-one] | 2%
25 | O=C(Cn1cnc2csc(-c3ccc(C(F)(F)F)cc3)c2c1=O)N1CC(F)(F)C1 [Example 358, 3-(2-(3,3-difluoroazetidin-1-yl)-2-oxoethyl)-5-(4-(trifluoromethyl)phenyl)thieno[3,4-d]pyrimidin-4(3H)-one] | 12%
26 | O=C(Cn1cnc2csc(-c3ccc(F)c(Cl)c3)c2c1=O)N1CCCC1 [Example 359, 5-(3-chloro-4-fluorophenyl)-3-(2-oxo-2-(pyrrolidin-1-yl)ethyl)thieno[3,4-d]pyrimidin-4(3H)-one] | 35%
